We go through two substances from paper PMC5374622, “Morintides: cargo-free chitin-binding peptides from Moringa oleifera” (BMC Plant Biology, 2017).

Positions of bridges follow the written chain, without caps; N, C: chain ends. Non-standard residues stand in square brackets, D forms with d. No end group written: not given here. pGlu = O=C1CC[C@@H](C(=O)O)N1

The format of data set [1] is physicochemical. The method, then: Purified mO1 (40 μg) was dissolved in water and incubated at 100 °C for 1 h. A linear peptide RV-14 ([…]) synthesized in our laboratory was used as a control. After incubation, the samples were subjected to RP-UPLC to assess the presence and extent of degradation.
Data set [2] in a line: Chitin binding assay with chitin beads. The method, then:
Purified morintide (mO1) was incubated with chitin beads (New England Biolabs, Massachusetts, […]) in chitin binding buffer (140 mM NaCl, 10 mM Tris EDTA 1 mM; pH 8.0; then, 0.1% (v/v) Tween 20 was added) at 4 °C for 4 h. At each time point, the beads were centrifuged at 12,000 g for 1 min and the absorbance of the supernatant was read at 280 nm to assess binding. Elution of the bound peptide was performed using two methods. In the first method, 0.5 M acetic acid and heating at 100 °C for 30 min and 1 h was used, and in the second method, four elution buffers (10 mM Tris, 1 mM EDTA, 0.1% (v/v) Tween 20; pH 8.0) with increasing concentration of sodium chloride (300 mM, 500 mM, 700 mM, and 1 M) were used. Reduced and alkylated mO1 was used as a control. Supernatants were further analyzed by UPLC and MALDI-TOF to assess binding and elution.

Data set [3] relates to Alternaria alternata (CICC 2465). Description: Disc diffusion assay. It counts as cell-based. The note with it: 17.5 to 70 μg mO1 on 6 mm discs, PDA plates, 24 h at 25 °C. Here is the method:
(§1) The susceptibility of seven fungal strains obtained from the China Center of Industrial Culture Collection (CICC), namely, Curvularia lunata (CICC 40301), Fusarium oxysporum (CICC 2532), Aspergillus niger (CICC 2089), Verticillium dahilae (CICC 2534), Rhizoctonia solani (CICC 40259), Alternaria alternata (CICC 2465) and Alternaria brassiciola (CICC 2646) to mO1 (17.5 to 70 μg) was tested using a disc diffusion assay. Potato dextrose agar (PDA) plates were used to grow C. lunata, R. solani, V. dahilae A. alternata, and A. brassiciola (A. niger was grown on malt extract (ME) agar plates) at 25 °C. When sufficient growth was observed, the mycelia were harvested by punching a hole in the growing fungi and transferring it to a new agar plate. The plate was incubated at 25 °C for 48 h to 72 h to allow formation of a radial mycelial colony. 6 mm discs impregnated with 20 μL of mO1 were placed equidistant (1 cm) from the growing ends of the mycelia and incubated for 24 h at 25 °C. Deionized water was used as a negative control. Formation of arc-shaped inhibition zones indicated susceptibility to mO1.
Background: In agar diffusion tests the substance spreads into inoculated agar from a disc or well.

In data set [4] the test system is Alternaria brassiciola (CICC 2646). Description: Disc diffusion assay. It counts as cell-based. The conditions noted are these: 17.5 to 70 μg mO1 on 6 mm discs, PDA plates, 24 h at 25 °C. The method, then: as §1
The nature of data set [5]: Proteolytic enzyme stability assay, pepsin. It is filed as in vitro ADME. The note with it: isolated enzyme pepsin, 100 mM sodium citrate pH 4.5, 37 °C, peptide:enzyme 20:1 (w/w), RP-UPLC area under the curve, MALDI-TOF MS, read-out: peptide remained intact after pepsin treatment. The method, then: (§2) Purified mO1 was incubated at 37 °C with pepsin or carboxypeptidase A in 100 mM sodium citrate (pH 4.5) or 50 mM Tris–HCl with 100 mM NaCl (pH 7.5) at a final peptide to enzyme ratio (w/w) of 20:1 and 50:1, respectively. At each time point (0, 2, 4, 6 h) 50 μL of the sample was injected into the UPLC system, and the mass of peaks collected were analyzed by MALDI-TOF MS. A linear peptide WV-14 (WRLYRGRLYRRNHV) synthesized in-house was used as a control.

A short description of data set [6]: Proteolytic enzyme stability assay, carboxypeptidase A. It counts as in vitro ADME. The note with it: isolated enzyme carboxypeptidase, 50 mM Tris-HCl with 100 mM NaCl pH 7.5, 37 °C, peptide:enzyme 50:1 (w/w), RP-UPLC area under the curve, MALDI-TOF MS, read-out: peptide remained intact after carboxypeptidase A treatment. Here is the method: as §2
In data set [7] the test system is Vero cells. Description: Cytotoxicity assay (PrestoBlue cell viability). It counts as cell-based. The conditions noted are these: concentrations up to 100 μM (1–100 μM), 24 h, DMEM 10% FBS, absorbance 570 nm. Here is the method:
The cytotoxic effect of morintide, mO1 (1–100 μM) was tested on Vero cells (5 × 10^4 cells/ml) in Dulbecco’s modified Eagle’s medium (DMEM) supplemented with 10% fetal bovine serum (FBS) and 1% penicillin/streptomycin (PS). Vero cells (ATCC CCL-81) were a kind gift from Dr Liu Ding Xiang (School of Biological Sciences, Nanyang Technological University, Singapore). After 24 h of incubation, 10 μl of PrestoBlue® Cell Viability Reagent (Invitrogen, USA) was added to the wells and incubated at 37 °C for 1 h. After incubation, the absorbance was measured at 570 nm using a microplate reader.

As to “RLYRRGRLYRRNHV [RV-14, linear peptide synthesized in the authors' laboratory, control in the thermal stability assay, reference compound]”, the “peptide degraded on heating” value in data set [1] is listed as “More than 50%”.
As to “[pGlu]NCGRQAGNRACANQLCCSQYGFCGSTSEYCSRANGCQSNCRG (disulfide 3-18, 12-24, 17-31, 37-41) [mO1]”, in data set [2] (0.5 M acetic acid, 100 °C, RP-UPLC), the “time for elution from chitin beads with 0.5 M acetic acid with heating at 100 °C” value is 1 h. Besides, the “elution from chitin beads with elution buffers with up to 1 M NaCl” value in data set [2] (elution buffers 10 mM Tris, 1 mM EDTA, 0.1% Tween 20, pH 8.0 with 300 mM, 500 mM, 700 mM, 1 M NaCl) is given as “could not be eluted”. In addition, the “time for elution from chitin beads in acidic conditions at high temperature” value in data set [2] (legend of Figure S2, acidic conditions at high temperature) is 30 min. The “susceptibility (crescent-/arc-shaped inhibition zones)” value in data set [3] and in data set [4] was “susceptible” throughout. In data set [1] (40 μg in water, 100 °C for 1 h, area under the curve of RP-UPLC chromatograms), the “peptide remained intact after heating” value is recorded as “more than 95%”. Also, the remaining at 6 h in data set [5] and in data set [6] was greater than 95% throughout. For the same substance, the “cytotoxic effect on Vero cells” value in data set [7] is reported as “No significant cytotoxic effect”.
